What is called solubility is the concentration that dissolves in the medium under given conditions. Usually EC50 stands for the midpoint of the concentration-response curve. A higher EC50 goes with weaker potency.

The record followed here is ChEMBL document CHEMBL5050850, “Compositions and methods of using the same for treatment of neurodegenerative and mitochondrial disease” (2020).

Converted amounts (≈) assume the structure as drawn. The source made the active and inactive calls. The rule behind the calls is not given here.

Data set [1] in a line: Ratio of highest compound concentration with no observable mitotoxicity to EC50 of compound to induce mitophagy in human HeLa MKYP cells. It counts as functional.
Data set [2] can be described thus: Solubility of compound in PBS. It counts as physicochemical.
Data set [3] is described as follows: Induction of mitophagy in human HeLa MKYP cells treated with FCCP/oligomycin for 6 hrs and measured by FACS analysis. It counts as functional, cell-based. Background: A flow cytometer gives signals particle by particle.
For data set [4], the system named is HeLa. Nature of the data set: Cytotoxicity against human HeLa MKYP cells assessed as cell death at 25 uM and measured DAPI staining method assay relative to control. It counts as toxicity, cell-based.
The subject of data set [5] is HeLa. The experiment in a line: Cytotoxicity against human HeLa MKYP cells assessed as cell death at 25 uM treated with FCCP/oliogmycin and measured DAPI staining method assay relative to control. It counts as toxicity, cell-based.
In data set [6] the test system is HeLa. Nature of the data set: Cytotoxicity against human HeLa MKYP cells assessed as percentage of DAPI-positive cells at 50 uM and measured by DAPI staining method. Type of data set: toxicity, cell-based.
The target in data set [7] is Serine/threonine-protein kinase PINK1, mitochondrial (Homo sapiens) (UniProt Q9BXM7). Nature of the data set: Activation of PINK1 in human HeLa MKYP PINK1-knock out cells treated with FCCP/oilgomycin assessed as increase in parkin recruitment and measured by ELISA assay. It counts as cell-based.
Chain of Serine/threonine-protein kinase PINK1, mitochondrial (Homo sapiens) (Q9BXM7 whole entry): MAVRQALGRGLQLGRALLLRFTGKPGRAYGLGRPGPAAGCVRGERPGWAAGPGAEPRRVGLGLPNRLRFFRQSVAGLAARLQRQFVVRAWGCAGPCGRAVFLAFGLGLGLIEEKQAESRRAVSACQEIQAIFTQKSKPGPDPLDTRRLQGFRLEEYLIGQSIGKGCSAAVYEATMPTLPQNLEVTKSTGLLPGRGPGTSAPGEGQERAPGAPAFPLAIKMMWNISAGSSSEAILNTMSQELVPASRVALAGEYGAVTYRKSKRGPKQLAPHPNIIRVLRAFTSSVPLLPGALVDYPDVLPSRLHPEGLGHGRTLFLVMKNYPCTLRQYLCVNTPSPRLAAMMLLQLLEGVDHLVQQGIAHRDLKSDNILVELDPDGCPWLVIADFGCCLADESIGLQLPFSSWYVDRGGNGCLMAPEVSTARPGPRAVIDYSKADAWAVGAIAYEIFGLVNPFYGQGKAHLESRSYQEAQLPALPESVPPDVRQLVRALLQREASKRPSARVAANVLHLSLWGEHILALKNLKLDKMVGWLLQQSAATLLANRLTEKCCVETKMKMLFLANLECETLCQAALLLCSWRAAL
Data set [8] has as its system Mus musculus. Nature of the data set: Protection against preformed alpha-synuclein amyloid fibril (PFF) in C57BL/6 mouse model assessed as decrease in pS129 monomer of alpha-synuclein in ipsilateral striatum at 5 to 50 mg/kg, po administered daily for 28 days. It counts as functional, organism-based. Conditions: dose 5-50 mg/kg, time 28.0 day.
Data set [9] has as its target Serine/threonine-protein kinase PINK1, mitochondrial (Homo sapiens) (UniProt Q9BXM7). The experiment in a line: Activation of PINK1 in human iPSC derived neurons at 3.1 to 6.2 uM assessed as reduction in pS129 alpha-synuclein. It counts as cell-based. Conditions: Neuron, filed as activator, dose 3.1-6.2 µM.
In data set [10] the test system is Mus musculus. Nature of the data set: Protection against cisplatin-induced mitochondrial dysfunction in mouse assessed as decrease in GDF15 expression at 20 to 50 mg/kg, po administered daily. It counts as functional, organism-based. Conditions: dose 20-50 mg/kg.
Data set [11] deals with HeLa. Nature of the data set: Induction of mitophagy in human HeLa MKYP cells expressing wild-type PNIK1 treated with FCCP/oligomycin for 6 hrs and measured by FACS analysis. It counts as functional, cell-based.
Data set [12] deals with Mus musculus. Nature of the data set: Protection against preformed alpha-synuclein amyloid fibril (PFF) in C57BL/6 mouse model assessed as decrease in total monomer of alpha-synuclein in ipsilateral striatum at 5 to 50 mg/kg, po administered daily for 28 days. Type of data set: functional, organism-based. Conditions: dose 5-50 mg/kg, time 28.0 day.
For data set [13], the system named is HeLa. The experiment in a line: Induction of mitophagy in human HeLa MKYP PINK1-knockout cells treated with FCCP/oligomycin for 6 hrs and measured by FACS analysis. Type of data set: functional, cell-based.
The target in data set [14] is Serine/threonine-protein kinase PINK1, mitochondrial (Homo sapiens) (UniProt Q9BXM7). The experiment in a line: Activation of PINK1 in human HeLa cells stably expressing YFP parkin assessed as reduction in dOTC protein accumulation and measured by ornithine carbamoyltransferase (DOTC) assay relative to control. Conditions: filed as activator. It counts as cell-based.

Data set [15] has as its system Mus musculus. Nature of the data set: Protection against preformed alpha-synuclein amyloid fibril (PFF) in C57BL/6 mouse model assessed as decrease in all species of alpha-synuclein in ipsilateral striatum at 5 to 50 mg/kg, po administered daily for 28 days. Type of data set: functional, organism-based. The following applies: dose 5-50 mg/kg, time 28.0 day.
Data set [16] deals with Serine/threonine-protein kinase PINK1, mitochondrial (Homo sapiens) (UniProt Q9BXM7). The experiment in a line: Activation of PINK1 in human HeLa MKYP PINK1-knock out cells at 3.125 to 6.25 uM assessed as reduction in pS129 alpha-synuclein. Type of data set: cell-based. The following applies: dose 3.125-6.25 µM.
For data set [17] the target is unchanged. The experiment in a line: Activation of PINK1 in human HeLa MKYP cells expressing PINK1 treated with FCCP/oilgomycin assessed as increase in pS65 Ub and measured by ELISA assay. It counts as cell-based. Conditions: filed as activator. In general terms: An ELISA detects its analyte on a solid surface through an enzyme-linked reagent.
The test system of data set [18] is Mus musculus. Nature of the data set: Protection against preformed alpha-synuclein amyloid fibril (PFF) in C57BL/6 mouse model assessed as decrease in all species of alpha-synuclein in ventral midbrain at 5 to 50 mg/kg, po administered daily for 28 days. Conditions: dose 5-50 mg/kg, time 28.0 day. It counts as functional, organism-based.
Data set [19] concerns the target Serine/threonine-protein kinase PINK1, mitochondrial (Homo sapiens) (UniProt Q9BXM7). Nature of the data set: Activation of PINK1 in human HeLa MKYP cells expressing PINK1 treated with FCCP/oilgomycin assessed as increase in parkin recruitment and measured by ELISA assay. It counts as cell-based. Conditions: filed as activator.
The target is the same in data set [20]. Nature of the data set: Activation of PINK1 in human HeLa MKYP PINK1-knock out cells treated with FCCP/oilgomycin assessed as increase in pS65 Ub and measured by ELISA assay. Type of data set: cell-based.
Data set [21] concerns Mus musculus. Nature of the data set: Protection against preformed alpha-synuclein amyloid fibril (PFF) in C57BL/6 mouse model assessed as decrease in all species of alpha-synuclein in contralateral striatum at 5 to 50 mg/kg, po administered daily for 28 days. The following applies: dose 5-50 mg/kg, time 28.0 day. Type of data set: functional, organism-based.
For data set [22], the system named is Mus musculus. Nature of the data set: Protection against preformed alpha-synuclein amyloid fibril (PFF) in C57BL/6 mouse model assessed as decrease in C-terminal truncation of alpha-synuclein in ipsilateral striatum at 5 to 50 mg/kg, po administered daily for 28 days. Type of data set: functional, organism-based. Conditions: dose 5-50 mg/kg, time 28.0 day.

Take `N#Cc1cccc2c1CCCC2Nc1ncnc2[nH]c(C(F)(F)F)cc12` (centres undefined): the Ratio in data set [1] came out at 8.39. This compound also displayed a solubility in data set [2] of 1 µM (≈ 0.357 µg/mL). In addition, the response in data set [3] was half-maximal at 2.98 µM (EC50). Moreover, the Activity is 57.1% in the data set with HeLa [4], 71.2% in the data set with HeLa [5] and 71.2% in the data set on HeLa [6].
`FC(F)(F)c1cc2c(NC3CCCc4ccccc43)ncnc2[nH]1` (stereo in doubt): the outcome (in data set [7]; in the data set with HeLa [13]; in [16]; in data set [20]) was inactive. Also, the result (in the data set with Mus musculus [8]; in data set [9]; with Mus musculus [10]; in the data set on HeLa [11]; in the data set with Mus musculus [12]; in data set [14]) was Active. Besides, the result (in the data set with Mus musculus [15]; in [17]; in the data set on Mus musculus [18]; in [19]; in the data set with Mus musculus [21]; with Mus musculus [22]) was Active.
Take `OC1CCc2ccccc2C1Nc1ncnc2[nH]c(C(F)(F)F)cc12` (centres undefined): the solubility in data set [2] is 1 µM (≈ 0.348 µg/mL). For the same compound, in [3], the EC50 was > 50 µM. Also, the Activity in the data set with HeLa [4] is given as 3.79%; in the data set with HeLa [5], 12.8%; in the data set with HeLa [6], 12.8%.
Regarding `OC[C@@H]1CCc2ccccc2[C@H]1Nc1ncnc2[nH]c(C(F)(F)F)cc12`, in data set [1], the Ratio amounted to 7.25. The same compound gave a concentration for a half-maximal effect (EC50) in data set [3] of 1.1 µM. Also, the values for the Activity with HeLa [4], with HeLa [5] and with HeLa [6] were 27%, 59.535% and 59.5%, respectively.
Take `O[C@@H]1Cc2ccccc2[C@H]1Nc1ncnc2[nH]c(C(F)(F)F)cc12`: the Ratio in [1] is 1.66. The same compound registered a half-maximal effective concentration (EC50) in data set [3] of 15.1 µM. For the same compound, the Activity in the data set on HeLa [4] was determined as 2.35%; with HeLa [5], 7.59%; in the data set with HeLa [6] it was 7.6%.
Turning to `C[C@H]1CCc2ccccc2[C@H]1Nc1ncnc2[nH]c(C(F)(F)F)cc12`, the Ratio in data set [1] was 7.74. Besides, the EC50 in [3] is 1.1 µM. For the same compound, the Activity in the data set on HeLa [4] stood at 6.45%; with HeLa [5], 12%; with HeLa [6], 12%.
In the case of `C[C@@H]1CCc2ccccc2[C@H]1Nc1ncnc2[nH]c(C(F)(F)F)cc12`, the concentration in solution in data set [2] (solubility) was 1 µM (≈ 0.346 µg/mL). In data set [3], a half-maximal response (EC50) required 4.18 µM. For the same compound, the figures for the Activity in the data set on HeLa [4], in the data set on HeLa [5] and in the data set on HeLa [6] were 17.9%, 23.8% and 23.8%, respectively.
`c1ccc2c(c1)CCC[C@H]2Nc1ncnc2[nH]c(C3CC3)cc12`: the Ratio in data set [1] came to 53.2. This compound also displayed a solubility in data set [2] of 1 µM (≈ 0.304 µg/mL). Besides, the EC50 in [3] stood at 0.47 µM. Also, the figures for the Activity with HeLa [4], with HeLa [5] and in the data set on HeLa [6] were 9.32%, 14.9% and 16.6%, respectively.
Take `O[C@H]1Cc2ccccc2[C@@H]1Nc1ncnc2[nH]c(C(F)(F)F)cc12`: in [1], the Ratio was 1.35. For the same compound, it took 18.5 µM to reach a half-maximal effect in data set [3] (EC50). Besides, the Activity in the data set with HeLa [4] is 2.51%; in the data set with HeLa [5], 14.4%; in the data set on HeLa [6] it was 14.4%.
Take `CO[C@@H]1CCc2ccccc2[C@H]1Nc1ncnc2[nH]c(C(F)(F)F)cc12`: the concentration in solution in data set [2] (solubility) was 1 µM (≈ 0.362 µg/mL). For the same compound, the concentration for a half-maximal effect (EC50) in data set [3] came to 22.1 µM. Besides, the Activity in the data set with HeLa [4] is listed as 15.3%; in the data set with HeLa [5], 18.4%; in the data set on HeLa [6], 18.4%.
Take `Fc1ccc2c(c1)CCCC2Nc1ncnc2[nH]c(C(F)(F)F)cc12` (centres undefined): the concentration in solution in data set [2] (solubility) was 1 µM (≈ 0.35 µg/mL). In data set [3], this compound returned an EC50 of 1.06 µM. The results for the Activity with HeLa [4], in the data set with HeLa [5] and with HeLa [6] were 3.27%, 30.1% and 30.1%, respectively.
Consider `C[C@H]1CCc2ccccc2[C@@H]1Nc1ncnc2[nH]c(C(F)(F)F)cc12`, for which, in data set [1], the Ratio turned out to be 8.69. Moreover, the solubility in data set [2] came to 1 µM (≈ 0.346 µg/mL). The compound also showed an EC50 in data set [3] of 0.6 µM. Besides, the values for the Activity in the data set on HeLa [4], in the data set with HeLa [5] and in the data set with HeLa [6] were 3.79%, 13.32% and 13.3%, respectively.
As for `CN1CC[C@H](Nc2ncnc3[nH]c(C(F)(F)F)cc23)c2ccccc21`, the Ratio in [1] was determined as 30. A half-maximal response in [3] (EC50) required 1.33 µM. For the same compound, the Activity with HeLa [4] is 2.51%; with HeLa [5], 16%; in the data set on HeLa [6], 59%.
Consider `CO[C@H]1CCc2ccccc2[C@@H]1Nc1ncnc2[nH]c(C(F)(F)F)cc12`, for which the solubility in data set [2] turned out to be 1.31 µM (≈ 0.475 µg/mL). Further, the EC50 in [3] is 1.48 µM. The results for the Activity in the data set with HeLa [4], with HeLa [5] and in the data set on HeLa [6] were 5.15%, 7.67% and 7.7%, respectively.
